Source: patent US6391896B1, “3-Tetrahydropyridin-4-yl indoles for treatment of psychotic disorders” (Duphar International Research BV, priority 1998, dated 2002)

melting point: 197 to 199 °C
SMILES: O=C1c2ccc(F)cc2C(=O)N1CCCCN1CC=C(c2c[nH]c3ccc(F)cc23)CC1
